From patent US20170173002A1, “Compositions and Methods for Treating an Infection” (CMPD LICENSING, LLC, priority 2015, published 2017)

How the values were obtained:
Aspergillus flavus = assay: Expected efficacy of antifungal agents; settings: expected efficacy against Aspergillus flavus
Fusarium species = assay: Expected efficacy of antifungal agents; settings: expected efficacy against Fusarium species
Aspergillus niger = assay: Expected efficacy of antifungal agents; settings: expected efficacy against Aspergillus niger
Scedosporium apiospermum = assay: Expected efficacy of antifungal agents; settings: expected efficacy against Scedosporium apiospermum
Aspergillus fumigatus = assay: Expected efficacy of antifungal agents; settings: expected efficacy against Aspergillus fumigatus
Candida species = assay: Expected efficacy of antifungal agents; settings: expected efficacy against Candida species
Aspergillus terreus = assay: Expected efficacy of antifungal agents; settings: expected efficacy against Aspergillus terreus
[1] = system: gram-positive staphylococci and streptococci; settings: background description of the drug; cited from earlier work
Klebsiella pneumoniae = assay: Expected efficacy of antibiotic agents; settings: expected efficacy against Klebsiella pneumoniae
[2] = system: Staphylococcus aureus (MSSA); assay: Expected efficacy of antibiotic agents; settings: expected efficacy against Staphylococcus aureus (MSSA)
Acinetobacter baumannii = assay: Expected efficacy of antibiotic agents; settings: expected efficacy against Acinetobacter baumannii
[3] = system: Acinetobacter calcoaceticus; assay: Expected efficacy of antibiotic agents; settings: expected efficacy against Acinetobacter calcoaceticus
Shigella boydii = assay: Expected efficacy of antibiotic agents; settings: expected efficacy against Shigella boydii
Bartonella bacilliformis = assay: Expected efficacy of antibiotic agents; settings: expected efficacy against Bartonella bacilliformis
Enterococcus faecalis = assay: Expected efficacy of antibiotic agents; settings: expected efficacy against Enterococcus faecalis
Serratia marcescens = assay: Expected efficacy of antibiotic agents; settings: expected efficacy against Serratia marcescens
Shigella sonnei = assay: Expected efficacy of antibiotic agents; settings: expected efficacy against Shigella sonnei
Vibrio cholerae = assay: Expected efficacy of antibiotic agents; settings: expected efficacy against Vibrio cholerae
Enterobacter sakazakii = assay: Expected efficacy of antibiotic agents; settings: expected efficacy against Enterobacter sakazakii
[4] = system: Viridans group streptococci; assay: Expected efficacy of antibiotic agents; settings: expected efficacy against Viridans group streptococci
Mycoplasma pneumoniae = assay: Expected efficacy of antibiotic agents; settings: expected efficacy against Mycoplasma pneumoniae
Bordetella pertussis = assay: Expected efficacy of antibiotic agents; settings: expected efficacy against Bordetella pertussis
Proteus mirabilis = assay: Expected efficacy of antibiotic agents; settings: expected efficacy against Proteus mirabilis
Pseudomonas aeruginosa = assay: Expected efficacy of antibiotic agents; settings: expected efficacy against Pseudomonas aeruginosa
Acinetobacter lwoffii = assay: Expected efficacy of antibiotic agents; settings: expected efficacy against Acinetobacter lwoffii
Chlamydia trachomatis = assay: Expected efficacy of antibiotic agents; settings: expected efficacy against Chlamydia trachomatis
Providencia stuartii = assay: Expected efficacy of antibiotic agents; settings: expected efficacy against Providencia stuartii
Bacteroides fragilis = assay: Expected efficacy of antibiotic agents; settings: expected efficacy against Bacteroides fragilis
Clostridium difficile = assay: Expected efficacy of antibiotic agents; settings: expected efficacy against Clostridium difficile
Proteus vulgaris = assay: Expected efficacy of antibiotic agents; settings: expected efficacy against Proteus vulgaris
Chlamydia pneumoniae = assay: Expected efficacy of antibiotic agents; settings: expected efficacy against Chlamydia pneumoniae
Enterococcus faecium = assay: Expected efficacy of antibiotic agents; settings: expected efficacy against Enterococcus faecium
Streptococcus agalactiae = assay: Expected efficacy of antibiotic agents; settings: expected efficacy against Streptococcus agalactiae
Neisseria meningitidis = assay: Expected efficacy of antibiotic agents; settings: expected efficacy against Neisseria meningitidis
[5] = system: Klebsiella (Calymmatobacterium) granulomatis; assay: Expected efficacy of antibiotic agents; settings: expected efficacy against Klebsiella (Calymmatobacterium) granulomatis
Corynebacterium jeikeium = assay: Expected efficacy of antibiotic agents; settings: expected efficacy against Corynebacterium jeikeium
Campylobacter jejuni = assay: Expected efficacy of antibiotic agents; settings: expected efficacy against Campylobacter jejuni
Salmonella typhi = assay: Expected efficacy of antibiotic agents; settings: expected efficacy against Salmonella typhi
Haemophilus ducreyi = assay: Expected efficacy of antibiotic agents; settings: expected efficacy against Haemophilus ducreyi
Pseudomonas fluorescens = assay: Expected efficacy of antibiotic agents; settings: expected efficacy against Pseudomonas fluorescens
Peptostreptococcus = assay: Expected efficacy of antibiotic agents; settings: expected efficacy against Peptostreptococcus
Morganella morganii = assay: Expected efficacy of antibiotic agents; settings: expected efficacy against Morganella morganii
Enterobacter cloacae = assay: Expected efficacy of antibiotic agents; settings: expected efficacy against Enterobacter cloacae
Shigella flexneri = assay: Expected efficacy of antibiotic agents; settings: expected efficacy against Shigella flexneri
Moraxella catarrhalis = assay: Expected efficacy of antibiotic agents; settings: expected efficacy against Moraxella catarrhalis
Citrobacter freundii = assay: Expected efficacy of antibiotic agents; settings: expected efficacy against Citrobacter freundii
Streptococcus pneumoniae = assay: Expected efficacy of antibiotic agents; settings: expected efficacy against Streptococcus pneumoniae
Shigella dysenteriae = assay: Expected efficacy of antibiotic agents; settings: expected efficacy against Shigella dysenteriae
Klebsiella oxytoca = assay: Expected efficacy of antibiotic agents; settings: expected efficacy against Klebsiella oxytoca
Citrobacter diversus = assay: Expected efficacy of antibiotic agents; settings: expected efficacy against Citrobacter diversus
[6] = system: Haemophilus parainfluenzae; assay: Expected efficacy of antibiotic agents; settings: expected efficacy against Haemophilus parainfluenzae
[7] = system: Methicillin resistant staph aureus (MRSA); assay: Expected efficacy of antibiotic agents; settings: expected efficacy against Methicillin resistant staph aureus (MRSA)
Providencia rettgeri = assay: Expected efficacy of antibiotic agents; settings: expected efficacy against Providencia rettgeri
Streptococcus pyogenes = assay: Expected efficacy of antibiotic agents; settings: expected efficacy against Streptococcus pyogenes
Diphtheroids = assay: Expected efficacy of antibiotic agents; settings: expected efficacy against Diphtheroids
Enterobacter aerogenes = assay: Expected efficacy of antibiotic agents; settings: expected efficacy against Enterobacter aerogenes
[8] = system: Staphylococcus epidermidis; assay: Expected efficacy of antibiotic agents; settings: expected efficacy against Staphylococcus epidermidis
Escherichia coli = assay: Expected efficacy of antibiotic agents; settings: expected efficacy against Escherichia coli
Neisseria gonorrhoeae = assay: Expected efficacy of antibiotic agents; settings: expected efficacy against Neisseria gonorrhoeae
Haemophilus influenzae = assay: Expected efficacy of antibiotic agents; settings: expected efficacy against Haemophilus influenzae
[9] = system: Corynebacterium urealyticum; assay: Expected efficacy of antibiotic agents; settings: expected efficacy against Corynebacterium urealyticum
Coccidioides immitis = settings: expected efficacy against Coccidioides immitis
Histoplasma capsulatum = settings: expected efficacy against Histoplasma capsulatum
Blastomyces dermatitidis = assay: Expected efficacy of antifungal agents; settings: expected efficacy against Blastomyces dermatitidis
Cryptococcus neoformans = assay: Expected efficacy of antifungal agents; settings: expected efficacy against Cryptococcus neoformans
Leishmania infantum = assay: Expected efficacy of antifungal agents; settings: expected efficacy against Leishmania infantum
[10] = system: Paracoccidioides brasiliensis; assay: Expected efficacy of antifungal agents; settings: expected efficacy against Paracoccidioides brasiliensis
Leishmania donovani = assay: Expected efficacy of antifungal agents; settings: expected efficacy against Leishmania donovani

Which Efficacy (Aspergillus flavus) does the source give for `C[C@@H](c1ncncc1F)[C@](O)(Cn1cncn1)c1ccc(F)cc1F` [Voriconazole, voriconazole] here?
Its Efficacy is “yes”.

And the Efficacy (Fusarium species)?
The Efficacy was “yes”.

What about the Efficacy (Aspergillus niger) of the same molecule?
Its Efficacy is “yes”.

What about the Efficacy (Scedosporium apiospermum) of the same molecule?
The Efficacy was “yes”.

And the Efficacy (Aspergillus fumigatus)?
The Efficacy was “yes”.

And the Efficacy (Candida species)?
Its Efficacy is “yes”.

What about the Efficacy (Aspergillus terreus) of the same molecule?
Its Efficacy is “yes”.

Which “activity against gram-positive staphylococci and streptococci” value [1] does the source give for `C/C(=C\C(=O)OCCCCCCCCC(=O)O)C[C@@H]1OC[C@H](C[C@@H]2O[C@H]2[C@@H](C)[C@@H](C)O)[C@@H](O)C1O` (stereo partly drawn) [Mupirocin] here?
The value was “excellent activity”.

Which results are given for `CN[C@H](CC(C)C)C(=O)N[C@H]1C(=O)N[C@@H](CC(N)=O)C(=O)N[C@H]2C(=O)N[C@H]3C(=O)N[C@H](C(=O)N[C@H](C(=O)O)c4cc(O)cc(O)c4-c4cc3ccc4O)[C@H](O)c3ccc(c(Cl)c3)Oc3cc2cc(c3O[C@@H]2O[C@H](CO)[C@@H](O)[C@H](O)[C@H]2O[C@H]2C[C@](C)(N)[C@H](O)[C@H](C)O2)Oc2ccc(cc2Cl)[C@H]1O` [Vancomycin]?
Efficacy (Klebsiella pneumoniae): no; Efficacy [2]: yes; Efficacy (Acinetobacter baumannii): no; Efficacy (Francisella tularensis): no; Efficacy (Clostridium perfringens): no; Efficacy [3]: no; Efficacy (Shigella boydii): no; Efficacy (Bartonella bacilliformis): no; Efficacy (Enterococcus faecalis): yes; Efficacy (Serratia marcescens): no; Efficacy (Shigella sonnei): no; Efficacy (Vibrio cholerae): no; Efficacy (Enterobacter sakazakii): no; Efficacy [4]: yes; Efficacy (Mycoplasma pneumoniae): no; Efficacy (Bordetella pertussis): no; Efficacy (Proteus mirabilis): no; Efficacy (Pseudomonas aeruginosa): no; Efficacy (Acinetobacter lwoffii): no; Efficacy (Chlamydia trachomatis): no; Efficacy (Providencia stuartii): no; Efficacy (Bacteroides fragilis): no; Efficacy (Clostridium difficile): yes; Efficacy (Proteus vulgaris): no; Efficacy (Legionella pneumophila): no; Efficacy (Yersinia pestis): no; Efficacy (Chlamydia pneumoniae): no; Efficacy (Enterococcus faecium): yes, not VRE; Efficacy (Streptococcus agalactiae): yes; Efficacy (Neisseria meningitidis): no; Efficacy [5]: no; Efficacy (Corynebacterium jeikeium): yes; Efficacy (Campylobacter jejuni): no; Efficacy (Salmonella typhi): no; Efficacy (Haemophilus ducreyi): no; Efficacy (Pseudomonas fluorescens): no; Efficacy (Peptostreptococcus): yes; Efficacy (Morganella morganii): no; Efficacy (Brucella species): no; Efficacy (Enterobacter cloacae): no; Efficacy (Rickettsiae): no; Efficacy (Shigella flexneri): no; Efficacy (Moraxella catarrhalis): no; Efficacy (Citrobacter freundii): no; Efficacy (Streptococcus pneumoniae): yes; Efficacy (Shigella dysenteriae): no; Efficacy (Klebsiella oxytoca): no; Efficacy (Citrobacter diversus): no; Efficacy [6]: no; Efficacy [7]: yes; Efficacy (Chlamydia psittaci): no; Efficacy (Providencia rettgeri): no; Efficacy (Streptococcus pyogenes): yes; Efficacy (Diphtheroids): yes; Efficacy (Enterobacter aerogenes): no; Efficacy [8]: yes; Efficacy (Escherichia coli): no; Efficacy (Neisseria gonorrhoeae): no; Efficacy (Haemophilus influenzae): no; Efficacy [9]: yes

For `OC(Cn1cncn1)(Cn1cncn1)c1ccc(F)cc1F` [Fluconazole], which Efficacy (Aspergillus flavus) is on record?
Its Efficacy is “yes”.

And the Efficacy (Coccidioides immitis)?
The Efficacy was “yes”.

And the Efficacy (Histoplasma capsulatum)?
The Efficacy was “yes”.

And the Efficacy (Aspergillus fumigatus)?
Its Efficacy is “yes”.

What about the Efficacy (Candida species) of the same molecule?
Its Efficacy is “yes”.

What about the Efficacy (Blastomyces dermatitidis) of the same molecule?
Its Efficacy is “yes”.

What about the Efficacy (Cryptococcus neoformans) of the same molecule?
The Efficacy was “yes”.

What does the source list for `C[C@@H]1[C@H](O)[C@@H](C)/C=C/C=C/C=C/C=C/C=C/C=C/C=C/[C@H](O[C@@H]2O[C@H](C)[C@@H](O)[C@H](N)[C@@H]2O)C[C@@H]2O[C@](O)(C[C@@H](O)C[C@@H](O)[C@H](O)CC[C@@H](O)C[C@@H](O)CC(=O)O[C@H]1C)C[C@H](O)[C@H]2C(=O)O` [Amphotericin, amphotericin b]?
Efficacy (Leishmania infantum): yes; Efficacy [10]: yes; Efficacy (Aspergillus flavus): yes; Efficacy (Coccidioides immitis): yes; Efficacy (Histoplasma capsulatum): yes; Efficacy (Leishmania donovani): yes; Efficacy (Aspergillus niger): yes; Efficacy (Aspergillus fumigatus): yes; Efficacy (Candida species): yes; Efficacy (Aspergillus terreus): yes; Efficacy (Blastomyces dermatitidis): yes; Efficacy (Cryptococcus neoformans): yes
